Reference: the supplement of paper PMC10307832

Key:
Assay in all cases: relative viability (nuclei count vs DMSO), 5 days (fraction); higher = more cells survive
Irinotecan + Tozasertib = compound: CCc1c2c(nc3ccc(OC(=O)N4CCC(N5CCCCC5)CC4)cc13)-c1cc3c(c(=O)n1C2)COC(=O)[C@]3(O)CC [Irinotecan] + Cc1cc(Nc2cc(N3CCN(C)CC3)nc(Sc3ccc(NC(=O)C4CC4)cc3)n2)n[nH]1 [Tozasertib] (partner 0.1 µM)
In short: (§1)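 Nuclei were stained with Hoechst during a one-step fixation (final 0.05% Triton X-100, 1% formaldehyde, 1 ug/ml Hoechst) carried out 5 days after dosing, then counted on 4× images. The cells, lung cancer lines in 1536-well plates, had been dosed by pin tool the day after seeding with one drug alone or a fixed anchor-drug dose plus five library-drug doses (not always all listed) in √10 steps. Relative viability is the nuclei count in treated wells divided by that in vehicle wells, and each value is the median of duplicate plates.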

MK-8033 + Vorinostat = compound: Cn1cc(-c2cnc3ccc4ccc(CS(=O)(=O)NCc5ccccn5)cc4c(=O)c3c2)cn1 [MK-8033] + O=C(CCCCCCC(=O)Nc1ccccc1)NO [Vorinostat] (partner 1 µM)
In short: as §1

RU-SKI 43 + Foretinib = compound: CC[C@@H](C)CNCC(=O)N1CCC2=C([C@@H]1COC3=CC=CC(=C3)C)C=CS2 [RU-SKI 43] + COc1cc2c(Oc3ccc(NC(=O)C4(C(=O)Nc5ccc(F)cc5)CC4)cc3F)ccnc2cc1OCCCN1CCOCC1 [Foretinib] (partner 0.25 µM)
In short: as §1

RU-SKI 43 + Bortezomib = compound: CC[C@@H](C)CNCC(=O)N1CCC2=C([C@@H]1COC3=CC=CC(=C3)C)C=CS2 [RU-SKI 43] + CC(C)C[C@H](NC(=O)[C@H](Cc1ccccc1)NC(=O)c1cnccn1)B(O)O [Bortezomib] (partner 0.002 µM)
In short: as §1

Row | Cell Line | relative viability (Irinotecan + Tozasertib; first compound 2 µM) | relative viability (Irinotecan + Tozasertib; first compound 6.325 µM) | relative viability (Irinotecan + Tozasertib; first compound 20 µM) | relative viability (MK-8033 + Vorinostat; first compound 0.02 µM) | relative viability (MK-8033 + Vorinostat; first compound 0.06325 µM) | relative viability (MK-8033 + Vorinostat; first compound 0.2 µM) | relative viability (MK-8033 + Vorinostat; first compound 0.6325 µM) | relative viability (MK-8033 + Vorinostat; first compound 2 µM) | relative viability (RU-SKI 43 + Foretinib; first compound 0.1 µM) | relative viability (RU-SKI 43 + Foretinib; first compound 0.3162 µM) | relative viability (RU-SKI 43 + Foretinib; first compound 1 µM) | relative viability (RU-SKI 43 + Foretinib; first compound 3.162 µM) | relative viability (RU-SKI 43 + Foretinib; first compound 10 µM) | relative viability (RU-SKI 43 + Bortezomib; first compound 0.1 µM) | relative viability (RU-SKI 43 + Bortezomib; first compound 0.3162 µM) | relative viability (RU-SKI 43 + Bortezomib; first compound 1 µM) | relative viability (RU-SKI 43 + Bortezomib; first compound 3.162 µM) | relative viability (RU-SKI 43 + Bortezomib; first compound 10 µM) | relative viability (Irinotecan + Tozasertib; first compound 0.6325 µM)
1 | NCI-H2126 | 0.813 | 0.46 | 0.206 | 0.671 | 0.554 | 0.72 | 0.798 | 0.822 | 1.09 | 1.05 | 1.17 | 1.28 | 1.33 | 1.15 | 1.25 | 1.23 | 1.12 | 1.08 | 
2 | NCI-H2228 | 0.31 | 0.348 | 0.287 | 0.594 | 0.562 | 0.417 | 0.696 | 0.821 | 0.769 | 0.988 | 0.879 | 0.863 | 0.726 | 1.19 | 1.26 | 0.937 | 1.98 | 0.941 | 0.259
3 | NCI-H2347 | 0.502 | 0.546 | 0.441 | 0.544 | 0.537 | 0.501 | 0.717 | 0.597 | 1.04 | 1.04 | 1.34 | 0.842 | 1.06 | 0.951 | 1.16 | 1.01 | 0.976 | 0.994 | 0.441
4 | NCI-H2405 | 0.605 | 0.354 | 0.246 | 1.1 | 0.988 | 0.9 | 1.06 | 1.04 | 1.08 | 1.03 | 1.04 | 1.09 | 1.05 | 0.957 | 1.03 | 1.02 | 0.936 | 0.773 | 
5 | NCI-H3122 | 0.339 | 0.2 | 0.0585 | 0.834 | 1.3 | 0.879 | 1.14 | 1.01 | 0.941 | 1.05 | 1 | 0.994 | 0.972 | 1.06 | 0.924 | 0.993 | 1.02 | 0.978 | 0.461
6 | PC-3 [JPC-3] | 0.81 | 0.363 | 0.314 | 0.886 |  | 0.77 | 0.924 | 0.817 | 1.02 | 1.04 | 1.11 | 1.06 | 0.976 | 0.848 | 0.747 | 0.82 | 0.881 | 0.827 | 0.78
7 | PC-14 | 0.51 | 0.19 | 0.174 | 0.708 | 0.52 | 0.683 | 0.797 | 0.599 | 0.872 | 1.15 | 1.02 | 1.07 | 0.909 | 0.793 | 1.19 | 0.942 | 0.848 | 0.66 | 
8 | RERF-LC-KJ | 0.438 | 0.358 | 0.179 | 0.726 | 0.599 | 0.664 | 0.707 | 0.597 | 0.849 | 0.976 | 0.812 | 0.959 | 0.913 | 1.12 | 1.39 | 1.17 | 1.2 | 1.2 | 0.444
9 | SK-LU-1 | 0.295 | 0.26 | 0.285 | 0.829 | 0.897 | 0.704 | 0.778 | 0.685 | 0.831 | 0.979 | 0.826 | 0.836 | 0.638 | 1.37 | 1.18 | 1.39 | 1.15 | 1.24 | 0.315
10 | SW 1573 | 0.311 | 0.183 | 0.155 | 0.836 | 0.681 | 0.7 | 0.729 | 0.667 | 0.997 | 1.21 | 0.843 | 1.04 | 0.887 | 1.13 | 1.42 | 1.16 | 0.947 | 0.901 | 0.152
